Measurements reported in paper PMC10200341 (Bioconjugate chemistry, 2022).

Assays:
A2AR = settings: ref [36]; cited from earlier work
Nb6E-E2-PTHR1 = assay: cell signaling assay Nb6E-E2-PTHR1; assay type: cell-based; settings: comparison with past work ref [26]

CCNC(=O)[C@H]1O[C@@H](n2cnc3c(N)nc(NCCc4ccc(CCC(=O)O)cc4)nc32)[C@H](O)[C@@H]1O [CGS21680]
A2AR agonism (A2AR): potent agonist of A2AR

PTH(1–34): prototypical PTHR1 ligand
potency relative to past work using wild-type PTHR1 (Nb6E-E2-PTHR1): potency comparable to past work using wild-type PTHR1
